Assays:
[1] = system: isolated rat liver mitochondria; experiment: Membrane potential of isolated mitochondria (Safranin A); type: biochemical; settings: for Depolarization of mitochondrial membrane: isolated mitochondria
Method: The membrane potential of rat […] mitochondria was measured with a Victor 3 plate analyzer (Perkin Elmer, Hamburg, Germany) using the potential-dependent indicator Safranin A [57]. The mitochondrial preparation was diluted in a buffer containing mannitol (225 mM) (Dia-M, Moscow, Russia), sucrose (75 mM) (Sigma Aldrich, Saint Louis, MO, USA), HEPES (10 mM) (Gibco, Scotland, UK), EGTA (20 µM) (Dia-M, Moscow, Russia) and KH2PO4 (1 mM) at pH = 7.4 at a ratio of 0.5 mg of protein to 1 mL of medium. Safranin A (5 µM) was added to the suspension immediately before the start of the measurement. The organelles were then energized by potassium succinate (5 mM) in the presence of rotenone (1 µM). Mitochondrial pore opening was induced by the addition of CaCl2 (25 µM).
Figure 8 Effect of the synthesized compounds on the membrane potential of rat liver mitochondria. (a) Kinetic lines of transmembrane potential changes at λex = 458 nm and λem = 590 nm. The concentration of the test substances was 100 µM. (b) Calculated parameters of % depolarization relative to control samples. Statistical significance was assessed using one-way ANOVA and Dunnett’s multiple comparison tests, where **** p < 0.0001 vs. control. (c) Concentration dependence of the effects of 11b and 17b on mitochondrial membrane potential. The concentration of the test substances was from 20 to 200 µM. Concentration of ions; Ca^2+—25 µM. Mitochondria were energized by potassium succinate and rotenone. Data are presented as mean±error of the mean (n = 3).

[2] = system: SH-SY5Y neuroblastoma cells; experiment: Glycolysis stress test (Seahorse XF96e, ECAR); type: cell-based; settings: compound 100 µM
Method: We studied the ability of compounds to inhibit aerobic glycolysis using the Agilent Seahorse XF96e Analyzer (Seahorse Bioscience, North Billerica, MA, USA) assay of cellular metabolism on the level of proton production in samples examined on the SH-SY5Y neuroblastoma cell line using glycolysis stress tests. The extracellular acidification rate of the medium was measured in real time, which allowed us to assess the intensity of glycolysis in the cells by recording the main parameters of glycolytic function: basal glycolysis, glycolytic capacity and glycolytic reserve. Glycolytic capacity describes the maximum amount of glycolysis/glucose breakdown the cells can perform acutely, whereas glycolytic reserve is defined as the difference between the basal and maximal glycolytic capacity.
The ability of synthesized compounds to modulate […] glycolysis was studied using the Agilent Seahorse XF96e Analyzer (Seahorse Bioscience, Billerica, MA, USA) on the neuroblastoma SH-SY5Y cell line (40,000 cells per well) as described earlier.
Glycolysis was measured by subtracting the maximum rate of extracellular acidification of the medium before glucose injection from the maximum rate before oligomycin injection. Glycolytic capacity was measured by subtracting the maximum velocity value before glucose injection from the maximum velocity value after oligomycin injection. Glycolytic reserve was defined as the difference between glycolytic capacity and glycolysis.
Figure 6 Effect of synthesized compounds on the glycolytic profile of (a–c) SH-SY5Y tumor cells and (d) calculated parameters of glycolytic function. […] The concentration of compounds was 100 µM, glucose—10 mM, oligomycin—1 µM и 2-fluoro-2-deoxy-D-glucose—25 mM. Data are presented as mean±error of the mean (n = 3). Statistical significance was assessed using one-way ANOVA and Dunnett’s multiple comparison tests, where **** p < 0.0001, *** p < 0.001, ** p < 0.01 and * p < 0.05 vs. control.

[3] = system: SH-SY5Y cells (neuroblastoma); experiment: MTT cytotoxicity test, SH-SY5Y; type: cell-based; settings: Homo sapiens, SH-SY5Y; MTT test; 24 h incubation per text, 48 h per method
Outline: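 Cells seeded at 5 × 10^3 per well and grown at 37 °C to monolayer, then exposed to compounds for 48 h. Viability by MTT (0.5 mg/mL, serum-free medium, 4 h, 37 °C), formazan dissolved in DMSO, OD 540 nm. IC50 estimated from triplicate experiments.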

CCOP(=O)(OCC)C(c1cc(C(C)(C)C)c(O)c(C(C)(C)C)c1)c1ccc(NC(=O)Nc2ccc([N+](=O)[O-])cc2)cc1NC(=O)Nc1ccc([N+](=O)[O-])cc1 (stereo not shown) [17b]
Depolarization of mitochondrial membrane ([1]; compound 100 μM): 50%
Depolarization of mitochondrial membrane ([1]; compound 200 μM): ~100%
Depolarization relative to control (class in Figure 8b) ([1]; isolated rat liver mitochondria, compound 100 µM): High Depolarization
Glycolytic reserve [2]: ability to decrease glycolytic reserves
Glycolysis: rate of extracellular acidification after saturating glucose ([2]; glucose 10 mM): decrease in the rate of extracellular acidification
Glycolytic capacity ([2]; oligomycin 1 µM): decrease in glycolytic capacity
IC50 [3]: 54.8 ± 2.1 µM

Source: article PMC10454409, “Hybrids of Sterically Hindered Phenols and Diaryl Ureas: Synthesis, Switch from Antioxidant Activity to ROS Generation and Induction of Apoptosis” (International Journal of Molecular Sciences, 2023)
